Experiments:
Assay in all cases: KINOMEscan competition binding
Settings in all cases: compound 10.0 µM
RPS6KA1 KD2 (human) = RPS6KA1 KD2 (human) (UniProt Q15418)
PAK2 (human) = PAK2 (human) (UniProt Q13177)
RPS6KA1 KD1 (human) = RPS6KA1 KD1 (human) (UniProt Q15418)
PRKCQ (human) = PRKCQ (human) (UniProt Q04759)
RAF1 (human) = RAF1 (human) (UniProt P04049)
MAPK13 (human) = MAPK13 (human) (UniProt O15264)
PRKCD (human) = PRKCD (human) (UniProt Q05655)
SRPK3 (human) = SRPK3 (human) (UniProt Q9UPE1)
MAP4K4 (human) = MAP4K4 (human) (UniProt O95819)
CAMKK1 (human) = CAMKK1 (human) (UniProt Q8N5S9)
CAMK1G (human) = CAMK1G (human) (UniProt Q96NX5)
TESK1 (human) = TESK1 (human) (UniProt Q15569)
TSSK1B (human) = TSSK1B (human) (UniProt Q9BXA7)
CDC42BPB (human) = CDC42BPB (human) (UniProt Q9Y5S2)
[1] = tested on: KIT (human), P10721 [V559D]
PHKG1 (human) = PHKG1 (human) (UniProt Q16816)
CSNK1A1L (human) = CSNK1A1L (human) (UniProt Q8N752)
CSNK2A2 (human) = CSNK2A2 (human) (UniProt P19784)
PRKD2 (human) = PRKD2 (human) (UniProt Q9BZL6)
PRKAA1 (human) = PRKAA1 (human) (UniProt Q13131)
TLK1 (human) = TLK1 (human) (UniProt Q9UKI8)
LTK (human) = LTK (human) (UniProt P29376)
SRMS (human) = SRMS (human) (UniProt Q9H3Y6)
[2] = biological target: TYK2 JH1 catalytic (human) (UniProt P29597)
EIF2AK2 (human) = EIF2AK2 (human) (UniProt P19525)
EPHA1 (human) = EPHA1 (human) (UniProt P21709)
BMPR1B (human) = BMPR1B (human) (UniProt O00238)
ACVR1 (human) = ACVR1 (human) (UniProt Q04771)
CHUK (human) = CHUK (human) (UniProt O15111)
TNNI3K (human) = TNNI3K (human) (UniProt Q59H18)
SIK1 (human) = SIK1 (human) (UniProt P57059)
TNK2 (human) = TNK2 (human) (UniProt Q07912)
TAOK3 (human) = TAOK3 (human) (UniProt Q9H2K8)
EPHA3 (human) = EPHA3 (human) (UniProt P29320)
CAMK4 (human) = CAMK4 (human) (UniProt Q16566)
NLK (human) = NLK (human) (UniProt Q9UBE8)
CDC42BPG (human) = CDC42BPG (human) (UniProt Q6DT37)
TTK (human) = TTK (human) (UniProt P33981)
EPHB4 (human) = EPHB4 (human) (UniProt P54760)
PRKG2 (human) = PRKG2 (human) (UniProt Q13237)

TNNI3K (human), sequence (Q59H18 whole entry, looked up): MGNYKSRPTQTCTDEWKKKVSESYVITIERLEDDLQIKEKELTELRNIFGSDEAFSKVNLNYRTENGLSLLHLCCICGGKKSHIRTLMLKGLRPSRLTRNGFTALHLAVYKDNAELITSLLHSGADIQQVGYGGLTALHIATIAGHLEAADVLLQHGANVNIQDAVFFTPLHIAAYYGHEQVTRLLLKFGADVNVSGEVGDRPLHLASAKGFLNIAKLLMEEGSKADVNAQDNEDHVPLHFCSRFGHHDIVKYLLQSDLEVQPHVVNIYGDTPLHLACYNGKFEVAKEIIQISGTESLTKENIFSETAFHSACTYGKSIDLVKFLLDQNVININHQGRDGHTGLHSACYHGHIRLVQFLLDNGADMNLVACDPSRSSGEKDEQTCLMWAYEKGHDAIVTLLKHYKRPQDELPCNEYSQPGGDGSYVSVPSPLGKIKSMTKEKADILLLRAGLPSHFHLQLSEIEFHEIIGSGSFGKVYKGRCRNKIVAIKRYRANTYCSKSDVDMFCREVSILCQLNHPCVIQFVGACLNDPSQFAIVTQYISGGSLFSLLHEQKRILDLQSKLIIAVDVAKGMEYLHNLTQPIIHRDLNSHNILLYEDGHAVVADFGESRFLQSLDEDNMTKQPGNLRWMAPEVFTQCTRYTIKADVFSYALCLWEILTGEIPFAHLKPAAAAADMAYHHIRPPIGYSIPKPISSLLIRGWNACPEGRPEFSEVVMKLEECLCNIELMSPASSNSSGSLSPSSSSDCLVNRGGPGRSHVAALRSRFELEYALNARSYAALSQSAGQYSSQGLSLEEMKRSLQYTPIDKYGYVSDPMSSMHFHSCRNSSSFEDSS
PRKCD (human), sequence (Q05655 whole entry, looked up): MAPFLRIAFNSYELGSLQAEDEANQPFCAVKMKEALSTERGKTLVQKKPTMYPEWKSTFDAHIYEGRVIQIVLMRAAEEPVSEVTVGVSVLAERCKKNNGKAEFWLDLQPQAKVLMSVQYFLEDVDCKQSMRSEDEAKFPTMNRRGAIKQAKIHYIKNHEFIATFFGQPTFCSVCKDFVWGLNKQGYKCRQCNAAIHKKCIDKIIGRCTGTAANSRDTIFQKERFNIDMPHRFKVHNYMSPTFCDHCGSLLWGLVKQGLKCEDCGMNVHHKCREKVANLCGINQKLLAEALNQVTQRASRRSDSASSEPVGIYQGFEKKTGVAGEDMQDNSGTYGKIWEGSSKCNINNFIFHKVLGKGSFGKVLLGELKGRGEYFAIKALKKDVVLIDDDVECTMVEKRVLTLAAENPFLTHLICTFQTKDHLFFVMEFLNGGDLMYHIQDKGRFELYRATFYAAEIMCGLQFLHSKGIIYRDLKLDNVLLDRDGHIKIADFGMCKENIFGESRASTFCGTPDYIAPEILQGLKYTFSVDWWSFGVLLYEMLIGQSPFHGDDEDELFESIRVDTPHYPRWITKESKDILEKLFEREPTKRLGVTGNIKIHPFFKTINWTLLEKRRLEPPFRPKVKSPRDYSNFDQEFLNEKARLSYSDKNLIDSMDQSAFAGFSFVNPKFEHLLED
KIT (human), P10721 [V559D], sequence (P10721 whole entry V559D, looked up): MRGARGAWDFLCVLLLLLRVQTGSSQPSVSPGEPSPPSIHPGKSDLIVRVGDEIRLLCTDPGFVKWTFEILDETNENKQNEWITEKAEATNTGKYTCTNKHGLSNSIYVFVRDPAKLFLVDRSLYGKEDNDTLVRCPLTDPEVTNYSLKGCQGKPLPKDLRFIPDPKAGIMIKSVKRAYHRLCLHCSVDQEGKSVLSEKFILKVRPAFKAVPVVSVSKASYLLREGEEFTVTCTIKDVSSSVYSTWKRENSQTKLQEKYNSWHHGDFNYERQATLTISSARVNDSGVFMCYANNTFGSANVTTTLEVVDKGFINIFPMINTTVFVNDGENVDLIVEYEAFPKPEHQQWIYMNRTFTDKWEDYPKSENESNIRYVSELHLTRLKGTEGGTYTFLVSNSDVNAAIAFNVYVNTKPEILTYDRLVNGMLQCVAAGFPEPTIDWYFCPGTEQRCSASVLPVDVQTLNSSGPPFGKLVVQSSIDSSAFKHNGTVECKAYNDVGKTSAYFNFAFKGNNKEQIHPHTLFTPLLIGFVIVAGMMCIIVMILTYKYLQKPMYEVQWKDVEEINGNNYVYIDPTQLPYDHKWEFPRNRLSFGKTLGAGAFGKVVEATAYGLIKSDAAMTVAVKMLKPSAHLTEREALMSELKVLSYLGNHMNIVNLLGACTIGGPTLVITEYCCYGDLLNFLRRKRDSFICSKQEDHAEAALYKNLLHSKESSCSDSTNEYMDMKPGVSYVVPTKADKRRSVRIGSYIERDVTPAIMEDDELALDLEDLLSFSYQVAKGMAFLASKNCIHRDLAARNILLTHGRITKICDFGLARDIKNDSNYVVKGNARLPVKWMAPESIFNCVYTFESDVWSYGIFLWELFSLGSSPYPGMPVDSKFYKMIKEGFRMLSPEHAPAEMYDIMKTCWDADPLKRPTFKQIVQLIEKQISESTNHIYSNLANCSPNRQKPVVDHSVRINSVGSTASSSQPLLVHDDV
TSSK1B (human), sequence (Q9BXA7 whole entry, looked up): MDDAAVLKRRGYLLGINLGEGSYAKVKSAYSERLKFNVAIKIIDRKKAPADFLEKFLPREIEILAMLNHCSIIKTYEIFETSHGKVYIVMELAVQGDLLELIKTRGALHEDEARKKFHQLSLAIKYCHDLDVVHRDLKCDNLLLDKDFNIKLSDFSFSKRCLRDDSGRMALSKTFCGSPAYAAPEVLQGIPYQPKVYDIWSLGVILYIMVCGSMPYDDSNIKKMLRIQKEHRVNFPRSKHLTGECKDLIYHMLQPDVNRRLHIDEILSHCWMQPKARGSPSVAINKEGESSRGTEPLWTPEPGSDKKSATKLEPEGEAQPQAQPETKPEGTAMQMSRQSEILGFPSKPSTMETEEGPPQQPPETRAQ
CSNK2A2 (human), sequence (P19784 whole entry, looked up): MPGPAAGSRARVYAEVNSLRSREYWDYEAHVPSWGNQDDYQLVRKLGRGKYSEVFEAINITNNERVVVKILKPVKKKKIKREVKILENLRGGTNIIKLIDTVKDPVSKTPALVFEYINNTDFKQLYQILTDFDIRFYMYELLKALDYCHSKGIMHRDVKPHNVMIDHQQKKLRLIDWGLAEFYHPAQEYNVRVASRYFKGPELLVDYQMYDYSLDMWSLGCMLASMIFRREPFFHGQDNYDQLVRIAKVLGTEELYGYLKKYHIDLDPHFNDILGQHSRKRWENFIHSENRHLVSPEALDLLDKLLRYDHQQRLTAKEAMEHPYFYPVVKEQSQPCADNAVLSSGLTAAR
PHKG1 (human), sequence (Q16816 whole entry, looked up): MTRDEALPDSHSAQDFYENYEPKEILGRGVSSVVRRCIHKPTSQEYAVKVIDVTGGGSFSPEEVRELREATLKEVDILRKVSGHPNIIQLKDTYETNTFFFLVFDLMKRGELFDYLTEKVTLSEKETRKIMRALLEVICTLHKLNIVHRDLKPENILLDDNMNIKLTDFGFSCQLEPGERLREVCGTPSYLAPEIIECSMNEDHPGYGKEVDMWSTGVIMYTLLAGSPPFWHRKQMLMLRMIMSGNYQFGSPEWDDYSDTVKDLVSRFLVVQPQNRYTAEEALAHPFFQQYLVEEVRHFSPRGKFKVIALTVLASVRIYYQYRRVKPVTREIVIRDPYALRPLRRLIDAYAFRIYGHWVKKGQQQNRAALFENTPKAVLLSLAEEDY
EPHA3 (human), sequence (P29320 whole entry, looked up): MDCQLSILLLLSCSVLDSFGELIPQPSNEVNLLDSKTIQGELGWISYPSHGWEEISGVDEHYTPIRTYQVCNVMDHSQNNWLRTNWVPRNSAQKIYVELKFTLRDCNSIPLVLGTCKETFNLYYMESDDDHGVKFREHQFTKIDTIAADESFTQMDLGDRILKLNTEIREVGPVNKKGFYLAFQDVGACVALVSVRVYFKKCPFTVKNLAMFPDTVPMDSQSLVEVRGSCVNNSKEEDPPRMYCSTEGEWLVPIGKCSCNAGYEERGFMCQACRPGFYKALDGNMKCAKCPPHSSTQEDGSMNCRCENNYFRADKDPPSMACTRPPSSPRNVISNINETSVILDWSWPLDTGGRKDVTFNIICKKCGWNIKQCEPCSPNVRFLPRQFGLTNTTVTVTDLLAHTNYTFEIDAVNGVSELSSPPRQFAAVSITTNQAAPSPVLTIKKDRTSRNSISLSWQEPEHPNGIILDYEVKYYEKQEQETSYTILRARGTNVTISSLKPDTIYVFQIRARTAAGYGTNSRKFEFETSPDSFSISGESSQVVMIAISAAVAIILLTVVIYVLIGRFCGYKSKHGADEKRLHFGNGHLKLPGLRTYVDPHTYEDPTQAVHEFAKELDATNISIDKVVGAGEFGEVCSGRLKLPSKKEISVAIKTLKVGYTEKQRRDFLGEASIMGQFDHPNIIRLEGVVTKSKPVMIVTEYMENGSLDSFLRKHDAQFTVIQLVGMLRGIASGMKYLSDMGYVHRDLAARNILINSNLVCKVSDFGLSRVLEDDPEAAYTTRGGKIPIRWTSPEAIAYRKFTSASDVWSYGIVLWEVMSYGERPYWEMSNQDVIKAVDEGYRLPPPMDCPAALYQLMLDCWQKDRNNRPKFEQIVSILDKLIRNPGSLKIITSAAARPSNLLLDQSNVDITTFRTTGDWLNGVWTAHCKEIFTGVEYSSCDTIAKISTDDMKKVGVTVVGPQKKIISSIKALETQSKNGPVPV
CAMK1G (human), sequence (Q96NX5 whole entry, looked up): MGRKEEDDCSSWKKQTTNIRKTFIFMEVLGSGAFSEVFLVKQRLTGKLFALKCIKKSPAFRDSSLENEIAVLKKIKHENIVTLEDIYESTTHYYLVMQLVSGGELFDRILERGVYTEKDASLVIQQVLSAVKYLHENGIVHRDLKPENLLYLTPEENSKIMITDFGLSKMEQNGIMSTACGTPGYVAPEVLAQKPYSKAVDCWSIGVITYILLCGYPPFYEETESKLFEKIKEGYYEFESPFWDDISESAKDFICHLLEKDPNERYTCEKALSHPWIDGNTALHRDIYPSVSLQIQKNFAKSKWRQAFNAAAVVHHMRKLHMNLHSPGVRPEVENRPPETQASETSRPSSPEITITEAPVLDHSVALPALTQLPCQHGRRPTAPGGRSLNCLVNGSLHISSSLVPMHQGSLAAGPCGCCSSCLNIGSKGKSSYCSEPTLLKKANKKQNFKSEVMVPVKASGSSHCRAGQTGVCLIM

Structure (SMILES)	kinase still bound, per cent of control (RPS6KA1 KD2 (human))	kinase still bound, per cent of control (PAK2 (human))	kinase still bound, per cent of control (RPS6KA1 KD1 (human))	kinase still bound, per cent of control (PRKCQ (human))	kinase still bound, per cent of control (RAF1 (human))	kinase still bound, per cent of control (MAPK13 (human))	kinase still bound, per cent of control (PRKCD (human))	kinase still bound, per cent of control (SRPK3 (human))	kinase still bound, per cent of control (MAP4K4 (human))	kinase still bound, per cent of control (CAMKK1 (human))	kinase still bound, per cent of control (CAMK1G (human))	kinase still bound, per cent of control (TESK1 (human))	kinase still bound, per cent of control (TSSK1B (human))	kinase still bound, per cent of control (CDC42BPB (human))	kinase still bound, per cent of control [1]	kinase still bound, per cent of control (PHKG1 (human))	kinase still bound, per cent of control (CSNK1A1L (human))	kinase still bound, per cent of control (CSNK2A2 (human))	kinase still bound, per cent of control (PRKD2 (human))	kinase still bound, per cent of control (PRKAA1 (human))	further results
C=CC(=O)Nc1cc(NC(=O)c2ccc(C)c(NC(=O)c3ccno3)c2)cc(C(F)(F)F)c1	100%	71%	99%	100%	40%	90%	91%	100%	88%	96%	91%	100%	93%	91%	1.4%	92%	90%	81%	100%	100%	kinase still bound, per cent of control (TLK1 (human)): 100%; kinase still bound, per cent of control (LTK (human)): 89%; kinase still bound, per cent of control (SRMS (human)): 77%; kinase still bound, per cent of control [2]: 98%; kinase still bound, per cent of control (EIF2AK2 (human)): 100%; kinase still bound, per cent of control (EPHA1 (human)): 99%; kinase still bound, per cent of control (BMPR1B (human)): 100%; kinase still bound, per cent of control (ACVR1 (human)): 84%; kinase still bound, per cent of control (CHUK (human)): 100%; kinase still bound, per cent of control (TNNI3K (human)): 54%; kinase still bound, per cent of control (SIK1 (human)): 97%; kinase still bound, per cent of control (TNK2 (human)): 84%; kinase still bound, per cent of control (TAOK3 (human)): 77%; kinase still bound, per cent of control (EPHA3 (human)): 9.8%; kinase still bound, per cent of control (CAMK4 (human)): 100%; kinase still bound, per cent of control (NLK (human)): 93%; kinase still bound, per cent of control (CDC42BPG (human)): 100%; kinase still bound, per cent of control (TTK (human)): 77%; kinase still bound, per cent of control (EPHB4 (human)): 87%; kinase still bound, per cent of control (PRKG2 (human)): 94%
C=CC(=O)Nc1cccc(Oc2nc(Nc3ccc(N4CCN(C)CC4)cc3OC)ncc2Cl)c1	100%	100%	12%	100%	100%	100%	100%	8.4%	100%	18%	100%	100%	100%	100%	26%	7.7%	100%	100%	15%	28%	kinase still bound, per cent of control (TLK1 (human)): 100%; kinase still bound, per cent of control (LTK (human)): 3.6%; kinase still bound, per cent of control (SRMS (human)): 100%; kinase still bound, per cent of control [2]: 100%; kinase still bound, per cent of control (EIF2AK2 (human)): 100%; kinase still bound, per cent of control (EPHA1 (human)): 100%; kinase still bound, per cent of control (BMPR1B (human)): 100%; kinase still bound, per cent of control (ACVR1 (human)): 100%; kinase still bound, per cent of control (CHUK (human)): 100%; kinase still bound, per cent of control (TNNI3K (human)): 100%; kinase still bound, per cent of control (SIK1 (human)): 100%; kinase still bound, per cent of control (TNK2 (human)): 18%; kinase still bound, per cent of control (TAOK3 (human)): 100%; kinase still bound, per cent of control (EPHA3 (human)): 100%; kinase still bound, per cent of control (CAMK4 (human)): 100%; kinase still bound, per cent of control (NLK (human)): 100%; kinase still bound, per cent of control (CDC42BPG (human)): 100%; kinase still bound, per cent of control (TTK (human)): 2%; kinase still bound, per cent of control (EPHB4 (human)): 100%; kinase still bound, per cent of control (PRKG2 (human)): 100%

Reference: the kinase profiling compilation of Christmann-Franck et al. (2016)
